In a melting point compilation (Tetko et al.; mined from patent text by program, amines drawn as free bases though some values may be those of a salt) one finds melting point data, which are given here for 86 compounds.

The term melting point denotes the temperature of the solid-liquid transition. The compound `C1=CNc2c(ccc3ncccc23)C=N1` came in with a melting point of 169 to 171 °C.
As for `CC1CN(C(=O)Cl)NC1=O` (stereo unspecified), the figure is 145 °C; as for `COc1nc(C)nc(NC(=O)NS(=O)(=O)c2ccccc2C=CCC#N)n1`, 142 to 143 °C.
For `COc1cc(C#CC(=O)NCCCNC(=O)C#Cc2cc(OC)c(OC)c(OC)c2)cc(OC)c1OC` the value was 158 to 160 °C; for `O=C1CC(c2ccccc2)Cc2c1ccn2Cc1ccccc1` (stereo unspecified), 122 to 123 °C; for `NC(=O)CCN1C(=O)[C@@H](CC(=O)NCCc2ccc(Br)cc2)S[C@H]1c1ccc(C#Cc2ccccc2)s1` (relative stereo), 224 to 227 °C.
For `CCOCc1nc2nccnc2c(=O)[nH]1` the value was 168 to 169 °C; for `Cc1oc(-c2ccco2)nc1COc1ccc(CCl)cc1Br`, 125 to 126 °C.
Take `CSC1CCC2C3CCC4=CC(=O)C=CC4(C)C3C(=O)CC12C` (stereo unspecified): the melting point fell in the range of 180 to 183 °C.
For `O=C1c2ccccc2-n2cnc(-c3nc(C4CC4)no3)c2[C@@H]2CCCN12` the value was 211 to 212 °C; for `COc1ccc(S(=O)(=O)N2Cc3ccccc3N(C(=O)c3ccc(OC)cc3OC)CC2C(=O)NO)cc1` (stereo unspecified), 189 to 191 °C.
`CCCCCCCCCCC=C1SC(=S)N(CC(=O)O)C1=O` gave a melting point of 61 to 63 °C.
For `COc1cc2c(cc1[N+](=O)[O-])[nH]c(=O)c(=O)n2C` the value was 343 °C.
As for `Cc1cc(=O)n(-c2cc(OC(C)C)c(Cl)cc2F)c(=O)n1C(F)F`, the figure is 97 to 99 °C; as for `O=c1[nH]c2ccccc2n1C1CCN(CC(O)COc2ccc(F)cc2)CC1` (stereo unspecified), 175 to 176 °C.
For `CC(CCCC(C)(C)O)C1CCC2C3=CC=C4CC(O)C(OCCCO)C(O)C4(C)C3CCC21C` (stereo unspecified) the value was 118 to 120 °C.
Regarding `CC(C)(C)NC(=O)Nc1nc2nc(S(C)(=O)=O)ncc2cc1-c1c(Cl)cccc1Cl`, the melting point fell in the range of 138 to 140 °C.
For `CNC(=O)N1N=C(c2ccc([N+](=O)[O-])cc2)c2ccc(Cl)cc2CC1C` (stereo unspecified) the value was 224 to 226 °C.
As for `COc1cc2cc(-c3cc4cc(OC)c(OC)c(C(C)C)c4cc3C)c(C)cc2c(C(C)C)c1OC`, the figure is 215 to 216 °C; as for `COc1ccc(-c2cc(NC(=O)Nc3ccc(N(CCCl)CCCl)cc3)c3cc(OC)ccc3n2)cc1`, 112 to 113 °C; as for `CCOC(=O)N1CCN(c2cn(C)c3nc(OCc4ccccn4)ccc23)C(=O)C1`, 143 °C.
On to `CC1(C)COC(=O)N1c1nc(-c2ccc(C#N)cc2)c(F)s1`, for which the melting point lay in the range of 177 to 178 °C.
As for `O=C(c1ccccc1)C1OC1c1ccccc1Cl` (stereo unspecified), the figure is 132 °C.
For `CN(Cc1ccccc1)C(=N)N[N+](=O)[O-]`, the melting point was in the range of 103 to 107 °C.
For `Nc1cscc1NC(=S)Nc1c(Cl)cccc1Cl` the value was 165 °C; for `CN(C)CCOc1cccc2c1c1cccc3c1n2C(c1ccccc1)CO3` (stereo unspecified), 117 to 118 °C.
Consider `N#Cc1c(N2CCc3ccccc3CC2)nc2[nH]ccn2c1=O`, for which the melting point was over 200 °C.
As for `CCC(=O)NC[C@H]1CN(c2ccc(N3CCC(=CC#N)CC3)c(F)c2)C(=O)O1`, the figure is 200 to 202 °C; as for `C[C@H](CNC(=O)COc1cc(C(F)(F)F)c2c(-c3ccccc3)nn(C)c2n1)c1ccccc1`, 91 to 93 °C.
As to `S=C(Nc1ccc(Cl)cc1)NC1CC2C3CC4C2C4C13` (stereo unspecified), the melting point is 168 to 170 °C.
For `Cc1ccccc1-c1ccc(Cl)cc1C#N`, the melting point lay within 62 to 65 °C.
Take `Cc1oc(-c2ccccc2)nc1CCc1noc(COc2cccc(CC(=O)O)c2)n1`: the melting point fell in the range of 93 to 94 °C.
For `Cc1ccc(O[C@@H](Cc2ccc(O)cc2)C(=O)OCC[Si](C)(C)C)cc1` the value was 94 to 95 °C.
For `COc1cc2c(cc1OC)C(Oc1ccc(Cl)cc1)CN(C)C2` (stereo unspecified) the value was 112 to 115 °C; for `CC1(C)Oc2ccc(S(=O)(=O)C(F)(F)C(F)(F)C(F)(F)F)cc2[C@@H](N)[C@@H]1O` (relative stereo), 176 to 177 °C; for `CON=C(C(=O)OC)c1nsc(N)n1`, 172 to 174 °C.
For `CCCCCCCCCCCCSc1cc2nc(C(CC)CCCC)oc2cc1[N+](=O)[O-]` (stereo unspecified) the value was 108 to 110 °C; for `CNc1nc(-c2cccc(NC(=O)c3ccncc3)c2)c2cc(OC)c(OC)cc2n1`, 228 to 230 °C.
Compound `CSc1ccc(-c2nn(Cc3ccc(Cl)cc3Cl)c(=S)cc2-c2ccc(Cl)cc2)cc1` had a melting point of 183 °C.
For `N#CC(c1ccccc1)(c1ccccc1)[C@H]1CCCN(CCc2ccc(Cl)cc2)C1` the value was 129 to 131 °C; for `C=C=COc1ccc2cc3ccccc3cc2c1`, 90.3 to 95.6 °C.
As for `COc1ccc(CNCCCOc2ccc(S(=O)(=O)c3c(C(C)C)cn4ccccc34)cc2)cc1OC`, the figure is 109 to 111 °C; as for `CC1(C)SC(c2ccco2)NC1C(=O)O` (stereo unspecified), 141 to 143 °C; as for `OCCCN1CCN(C2=Nc3ccccc3Nc3ccsc32)CC1`, 172 to 173 °C.
As for `OCCOC1=Nc2ccc(Cl)cc2C(c2ccccc2)=NC1`, the figure is 142 to 144 °C; as for `O=C(O)COc1ccc2c(c1)sc1cc3ccccc3c(-c3ccc(OC(Cc4ccccc4)C(=O)O)cc3)c12` (stereo unspecified), 191 to 201 °C; as for `O=[N+]([O-])c1ccc(CN2CCCCc3ncccc32)cc1`, 231 to 233 °C.
The compound `CCOc1cc(COc2nn(-c3ccccc3)cc2/C=C/P(=O)(OCC)OCC)ccc1OCc1nc(-c2ccco2)oc1C` returned a melting point of 117 to 118 °C.
For `Cc1ccc2cc(-c3cccs3)ccc2n1` the value was 87 °C; for `CSC1NC(=O)N(C2CCCCC2)C(=O)N1N=C(C)C` (stereo unspecified), 111 to 112 °C; for `CC(=O)Oc1coc(-c2cccc([N+](=O)[O-])c2)cc1=O`, 170 to 171 °C.
Consider `CCOC(Nc1ccc(C(=O)O)cc1)C(=O)c1ccc(-c2ccccc2)cc1` (stereo unspecified), for which the melting point came to 179 °C.
For `CC(C)c1cc(C(C)C)c(CC(=O)NS(=O)(=O)Oc2c(C(C)C)cc(NS(=O)(=O)c3cccc4c(N(C)C)cccc34)cc2C(C)C)c(C(C)C)c1` the value was 103 to 105 °C; for `COC(=O)c1ccc2c(c1)NC(=O)C(CCO)O2` (stereo unspecified), 167 to 169 °C.
For `CS(=O)(=O)c1ccc(C(=O)c2cnoc2C2CC2)c2c1OC(F)(F)O2` the value was 164 to 165 °C; for `COc1ccc(CC#Cc2ccc3c(c2)c(=O)n(Cc2ccccc2)c2nncn32)cc1`, 267 °C; for `CC(C)[C@H](NC(=O)OCc1ccc2ccccc2n1)C(=O)N[C@@H](Cc1ccccc1)[C@@H](O)C[C@H](Cc1ccccc1)NC(=O)OCc1cccnc1`, 159 to 163 °C.
As for `Nc1nc(N)c(CCCNc2ccc(C(=O)N[C@@H](CCC(=O)O)C(=O)O)cc2)c(=O)[nH]1`, the figure is 195 to 200 °C.
On to `CCC(CC)(CC(=O)Nc1cccc(OCc2ccc3cc(F)ccc3n2)c1)C(=O)O`, for which the melting point fell in the range of 88 to 90 °C.
`CCCCCCc1cc2c(cc1O)C(=O)CCC2` gave a melting point of 125 °C.
`CN1C(=O)[C@H](NC(=O)/C=C/c2ccc3c(c2)OCO3)N=C(c2ccccc2)c2ccccc21`: the melting point is 143 to 145 °C.
On to `COC(=O)Cn1nnc(NC(=O)C2c3ccccc3Oc3ccccc32)n1`, for which the melting point lay in the range of 243 to 244 °C.
As for `Cc1[nH]c(=O)ccc1C(=O)c1ccco1`, the figure is 258 to 260 °C.
Compound `CN1CCC2(CC1)c1ccccc1Oc1c(O)cccc12` yielded a melting point of 171 to 173 °C.
As for `COc1ccc(C(=O)N2CCc3cc(S(=O)(=O)N4CC(c5ccccc5)NC4=O)ccc32)cc1OC` (stereo unspecified), the figure is 178 to 179 °C.
As for `COc1cc2[nH]c(C(=O)O)cc2c(C)c1C`, the figure is 208 °C.
As for `COc1nc(Cl)cnc1N(C(=O)OCC(C)C)S(=O)(=O)c1ccccc1-c1ccc(OC2CCCCO2)cc1` (stereo unspecified), the figure is 142 to 143 °C; as for `CC(C)(C)OC(=O)N1CCn2c(c(C(N)=O)c(C#N)c2C2CCOCC2)C1`, 212 to 221 °C.
`CCOC(=O)Cc1cccc2c(-c3ccccc3)nccc12` registered a melting point of 141 °C.
As for `ClCc1nnc2n1-c1ccccc1C(c1ccccc1Cl)=NC2`, the figure is 186 to 188 °C.
For `COC(=O)C(C)=Cc1cc(NC(=S)N2CCCCN2)ccc1Cl` the value was 120 to 121 °C; for `Cc1ccccc1COc1cccnc1NC(=S)Nc1ccccc1`, 150 to 151 °C; for `CC(C)(C)[Si](C)(C)OCCn1nc(CO)cc1CO`, 82 to 83 °C.
For `O[Si](Cn1cncn1)(c1ccc(F)cc1)c1ccc(F)cc1` the value was 130 to 131 °C; for `CC(C)c1ccccc1N=C1N=CC(C)(C)CS1`, 155 to 157 °C.
For the compound `CCOC(=O)C(O)=Cc1cc(CCc2ccccc2)cnn1`, the melting point lay in the range of 94 to 95 °C.
`COC(=O)C=CCCC(C)C1CCC2C3CCC4CC(OC=O)CCC4(C)C3CC(OC=O)C12C` (stereo unspecified) came in with a melting point of 112 to 115 °C.
The compound `Cc1nc2cc(NC(=O)c3cc4cc(F)ccc4n3Cc3cccc(F)c3)ccn2c1C` registered a melting point of 251 to 253 °C.
`CC(=O)NS(=O)(=O)c1ccc(C2=C(c3ccc(F)c(Cl)c3)CCC2)cc1` returned a melting point of 127 to 129 °C.
As for `CC(C)(C)OC(=O)/C(=C/c1ccc(Br)cc1)C(=O)c1ccccc1O`, the figure is 98 to 100 °C; as for `CCCC[C@]1(CC)CS(=O)(=O)c2cc3c(cc2[C@@H](c2ccccc2)N1)OCO3`, 71 to 73 °C; as for `Cc1ccc(C)n1-c1ccc(C=CC(=O)O)cc1`, 184 to 185 °C.
As to `CN(C)C(=O)c1c(-c2ccccc2)oc2c(CCl)cccc2c1=O`, the melting point was 202 to 203 °C.
As for `O=c1[nH]c(=O)n(C2CC(F)C(CO)O2)cc1Cl` (stereo unspecified), the figure is 183 to 184 °C; as for `NS(=O)(=O)c1cccc(-c2cn(-c3nc(-c4cccc(Cl)c4)cc(C(F)(F)F)n3)cn2)c1`, 204 °C.
As for `COc1ccc2cc3c(c(-c4ccc(OC(F)(F)F)cc4)c2c1)CNC3=O`, the figure is 277 to 280 °C.
